Measurements: patent US9902725B2, “Heterocyclic derivatives as RORgamma modulators” (GENFIT, priority 2014, dated 2018)

Key:
[1] = target: T1, RORγt ligand-binding domain (RORγt-LBD) (Homo sapiens, UniProt P51449); experiment: Time-resolved FRET (TR-FRET) RORγt coactivator assay; type: biochemical; details: GST-RORγ-LBD, biotinylated RIP140 peptide, coactivator displacement
T1 construct: 20 nM recombinantly expressed RORγ-LBD fused to GST
T1 sequence (P51449 269-508 limits assumed): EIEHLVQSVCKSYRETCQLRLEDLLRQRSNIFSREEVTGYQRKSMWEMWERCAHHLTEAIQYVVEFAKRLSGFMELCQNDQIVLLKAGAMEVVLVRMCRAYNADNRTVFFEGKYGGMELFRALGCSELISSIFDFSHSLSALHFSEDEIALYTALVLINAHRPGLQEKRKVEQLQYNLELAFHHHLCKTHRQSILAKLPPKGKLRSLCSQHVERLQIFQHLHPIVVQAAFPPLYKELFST

[2] = Microsomal stability, human microsomes (CEREP); type: in vitro ADME; details: 0.1 μM, 0.1 mg/mL microsomal protein
Protocol: (§1) All the assays were conducted at CEREP (CEREP, France and USA). Metabolic compound stability was tested in human (CEREP, Ref 607) and mouse (CEREP, Ref: 806) microsomes. Inhibition of human drug-metabolizing cytochromes P450 was tested on the five most commonly responsible enzymes of metabolism of xenobiotics, CYP1A2 (CEREP, Ref 389), CYP2C9 (CEREP, Ref 412), CYP2C19 (CEREP, Ref 390), CYP2D6 (CEREP, Ref 1338) and CYP3A4 (CEREP, Ref 391).
(§2) Briefly, the standard conditions for CEREP's stability assays include incubation of test compound at 0.1 μM with human or mouse microsomes for 60 minutes in duplicate. The protein concentration of microsomes is 0.1 mg/mL. The parent compound is detected by HPLC-MS/MS analysis. The quantity of the parent compound that remains intact upon 60 minutes of microsome exposure (% remaining) is calculated by comparing the peak area of the parent compound at 60 minutes of exposure to the time zero.

[3] = Microsomal stability, mouse microsomes (CEREP); type: in vitro ADME; details: 0.1 μM, 0.1 mg/mL microsomal protein
Protocol: as §1, §2

CYP1A2 = target: T2, CYP1A2 (Homo sapiens, UniProt P05177); experiment: CYP inhibition CYP1A2 (CEREP); type: in vitro ADME; details: human, recombinant CYP1A2, probe 3-cyano-7-ethoxycoumarin, single concentration (typically 10 μM), read-out: CYP 1A2 (% inhibition of Control)
T2 sequence (P05177 1-516): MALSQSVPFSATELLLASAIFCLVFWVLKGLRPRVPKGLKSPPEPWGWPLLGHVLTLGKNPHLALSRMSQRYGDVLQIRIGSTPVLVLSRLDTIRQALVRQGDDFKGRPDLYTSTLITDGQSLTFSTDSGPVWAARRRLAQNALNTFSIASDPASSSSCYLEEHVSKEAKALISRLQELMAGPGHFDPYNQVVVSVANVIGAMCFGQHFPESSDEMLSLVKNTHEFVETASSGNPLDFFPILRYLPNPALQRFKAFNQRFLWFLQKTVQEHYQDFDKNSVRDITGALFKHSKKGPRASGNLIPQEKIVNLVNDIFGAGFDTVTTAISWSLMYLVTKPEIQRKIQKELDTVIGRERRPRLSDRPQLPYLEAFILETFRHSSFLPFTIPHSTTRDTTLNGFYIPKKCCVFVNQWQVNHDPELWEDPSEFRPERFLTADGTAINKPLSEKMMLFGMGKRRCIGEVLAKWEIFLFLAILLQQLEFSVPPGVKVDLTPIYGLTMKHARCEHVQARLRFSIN
Protocol: as §1
(§3) Briefly, CEREP's CYP inhibition assay uses traditional probe substrates, which are specific to individual CYP isoforms. 3-cyano-7-ethoxycoumarin is mainly catalyzed by CYP1A2 and CYP2C19, 3-[2-(N,N-diethyl-N-methylammonium)ethyl]-7-methoxy-4-methylcoumarin for CYP2C9 and CYP2D6 and finally, 7-benzyloxy-4-trifluoromethylcoumarin is pathway catalyzed predominantly by CYP3A4. The inhibition assays were performed with human recombinant CYP isoforms preparations. HPLC MS/MS methods are used to detect metabolites in these assays. Compounds were tested at single concentrations (typically 10 μM) and data were expressed as percent of control inhibition.

CYP2C9 = CYP2C9 (Homo sapiens, UniProt P11712); experiment: CYP inhibition CYP2C9 (CEREP); type: in vitro ADME; details: human, recombinant CYP2C9, human recombinant CYP, single concentration (typically 10 μM); read-out: CYP 2C9 (% inhibition of Control)
Protocol: as §1, §3

CYP2C19 = CYP2C19 (Homo sapiens, UniProt P33261); experiment: CYP inhibition CYP2C19 (CEREP); type: in vitro ADME; details: human, recombinant CYP2C19, probe 3-cyano-7-ethoxycoumarin, single concentration (typically 10 μM), read-out: CYP 2C19 (% inhibition of Control)
Protocol: as §1, §3

CYP2D6 = CYP2D6 (Homo sapiens, UniProt P10635); experiment: CYP inhibition CYP2D6 (CEREP); type: in vitro ADME; details: human, recombinant CYP2D6, human recombinant CYP, single concentration (typically 10 μM); read-out: CYP 2D6 (% inhibition of Control)
Protocol: as §1, §3

CYP3A4 = CYP3A4 (Homo sapiens, UniProt P08684); experiment: CYP inhibition CYP3A4 (CEREP); type: in vitro ADME; details: human, recombinant CYP3A4, probe 7-benzyloxy-4-trifluoromethylcoumarin, single concentration (typically 10 μM), read-out: CYP 3A4 (% inhibition of Control)
Protocol: as §1, §3

CYP3A4, sequence (P08684 whole entry): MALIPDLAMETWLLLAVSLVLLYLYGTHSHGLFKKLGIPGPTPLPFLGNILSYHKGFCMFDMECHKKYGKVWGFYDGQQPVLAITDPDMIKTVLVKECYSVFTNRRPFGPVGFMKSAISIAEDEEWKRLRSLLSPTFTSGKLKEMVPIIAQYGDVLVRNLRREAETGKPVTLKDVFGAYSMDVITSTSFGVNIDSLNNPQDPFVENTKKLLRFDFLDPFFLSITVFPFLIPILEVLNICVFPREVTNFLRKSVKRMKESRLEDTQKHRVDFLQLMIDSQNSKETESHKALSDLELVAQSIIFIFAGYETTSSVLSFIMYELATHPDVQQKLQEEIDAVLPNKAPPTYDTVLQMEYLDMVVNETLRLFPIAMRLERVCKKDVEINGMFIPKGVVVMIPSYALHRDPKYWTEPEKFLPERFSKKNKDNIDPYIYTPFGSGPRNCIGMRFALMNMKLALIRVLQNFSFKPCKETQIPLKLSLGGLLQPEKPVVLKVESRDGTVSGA
CYP2C19, sequence (P33261 whole entry): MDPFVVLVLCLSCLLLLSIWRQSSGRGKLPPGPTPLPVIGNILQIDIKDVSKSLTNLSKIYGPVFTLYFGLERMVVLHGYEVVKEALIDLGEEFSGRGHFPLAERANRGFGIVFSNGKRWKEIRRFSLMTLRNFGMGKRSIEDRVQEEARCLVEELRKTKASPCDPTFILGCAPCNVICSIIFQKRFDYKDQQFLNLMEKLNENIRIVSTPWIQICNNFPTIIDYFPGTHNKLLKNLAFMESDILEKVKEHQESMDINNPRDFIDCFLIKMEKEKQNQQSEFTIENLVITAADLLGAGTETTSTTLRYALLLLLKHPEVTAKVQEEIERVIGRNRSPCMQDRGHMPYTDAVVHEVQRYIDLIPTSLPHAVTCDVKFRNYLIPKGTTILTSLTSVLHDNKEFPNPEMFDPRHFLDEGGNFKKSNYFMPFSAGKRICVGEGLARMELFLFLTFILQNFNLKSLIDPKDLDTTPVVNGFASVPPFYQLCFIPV
CYP2C9, sequence (P11712 whole entry): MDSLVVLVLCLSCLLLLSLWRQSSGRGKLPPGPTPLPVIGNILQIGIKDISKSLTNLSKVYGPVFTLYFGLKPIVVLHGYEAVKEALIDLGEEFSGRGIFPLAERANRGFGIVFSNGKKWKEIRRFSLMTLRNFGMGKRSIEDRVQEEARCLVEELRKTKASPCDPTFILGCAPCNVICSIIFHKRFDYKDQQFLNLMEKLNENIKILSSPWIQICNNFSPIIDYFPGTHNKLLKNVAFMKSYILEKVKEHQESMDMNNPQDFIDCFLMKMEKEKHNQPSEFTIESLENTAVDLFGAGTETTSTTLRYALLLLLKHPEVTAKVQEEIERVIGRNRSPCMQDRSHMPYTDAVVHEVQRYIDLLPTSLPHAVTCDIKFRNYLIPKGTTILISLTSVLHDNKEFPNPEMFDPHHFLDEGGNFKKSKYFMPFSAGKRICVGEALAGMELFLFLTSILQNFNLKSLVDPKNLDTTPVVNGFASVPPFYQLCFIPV
CYP2D6, sequence (P10635 whole entry): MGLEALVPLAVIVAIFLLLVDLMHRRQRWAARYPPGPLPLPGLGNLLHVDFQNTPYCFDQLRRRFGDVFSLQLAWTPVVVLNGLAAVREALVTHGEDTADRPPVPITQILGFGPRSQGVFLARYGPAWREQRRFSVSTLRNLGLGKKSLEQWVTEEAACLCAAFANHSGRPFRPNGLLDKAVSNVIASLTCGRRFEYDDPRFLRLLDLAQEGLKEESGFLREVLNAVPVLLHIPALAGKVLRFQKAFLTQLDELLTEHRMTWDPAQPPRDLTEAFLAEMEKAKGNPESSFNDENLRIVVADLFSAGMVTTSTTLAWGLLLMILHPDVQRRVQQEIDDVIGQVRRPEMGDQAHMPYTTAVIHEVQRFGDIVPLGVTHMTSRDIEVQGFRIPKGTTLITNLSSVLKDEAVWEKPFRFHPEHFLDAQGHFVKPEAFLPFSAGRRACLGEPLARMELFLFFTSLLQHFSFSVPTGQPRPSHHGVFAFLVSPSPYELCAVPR

Row | Structure (SMILES) | IC50 [1] [nM] | Human microsomes (% Cpd. remaining at 60 min) [2] [%] | Mouse microsomes (% Cpd. remaining at 60 min) [3] [%] | inhibition at 10 µM (CYP1A2) [%] | inhibition at 10 µM (CYP2C9) [%] | inhibition at 10 µM (CYP2C19) [%] | inhibition at 10 µM (CYP2D6) [%] | inhibition at 10 µM (CYP3A4) [%]
1 | O=C(O)CCc1c[nH]c2ccc(CC(=O)NC(c3ccccc3)c3ccccc3N3CCCCC3)cc12 (centres unmarked) [Cpd. 1, 3-{5-[({phenyl[2-(piperidin-1-yl)phenyl]methyl}carbamoyl)methyl]-1H-indol-3-yl}propanoic acid] | < 1000 | 54 | 35 | 1 | 12 | 13 | 49 | 19
2 | O=C(O)CCc1c[nH]c2ccc(CC(=O)NC(c3cccc(F)c3)c3ccccc3N3CCCCC3)cc12 (centres unmarked) [Cpd. 3, 3-[5-({[(3-fluorophenyl)[2-(piperidin-1-yl)phenyl]methyl]carbamoyl}methyl)-1H-indol-3-yl]propanoic acid] | < 1000 | 36 | 22 | 2.9 | 52.7 | 58.8 | -2 | 60.9
3 | Cc1ccc(C(NC(=O)Cc2ccc3[nH]cc(CCC(=O)O)c3c2)c2ccccc2)c(N2CCCC2)c1 (centres unmarked) [Cpd. 5, 3-{5-[({[4-methyl-2-(pyrrolidin-1-yl)phenyl](phenyl)methyl}carbamoyl)methyl]-1H-indol-3-yl}propanoic acid] | < 1000 | 89 | 50 | 4.4 | 35.9 | 25 | 13.5 | 25.8
4 | CC(C)CC(NC(=O)Cc1ccc2[nH]cc(CCC(=O)O)c2c1)c1ccccc1N1CCCCC1 (centres unmarked) [Cpd. 29, 3-{5-[({3-methyl-1-[2-(piperidin-1-yl)phenyl]butyl}carbamoyl)methyl]-1H-indol-3-yl}propanoic acid] | < 1000 | 23 | 20 | -8.2 | 14.9 | 14.1 | 18.2 | 47.2
5 | O=C(O)CCc1c[nH]c2ccc(CC(=O)NC(c3ccccc3)c3ccc(C(F)(F)F)cc3N3CCCC3)cc12 (centres unmarked) [Cpd. 48, 3-{5-[({phenyl[2-(pyrrolidin-1-yl)-4-(trifluoromethyl)phenyl]methyl}carbamoyl)methyl]-1H-indol-3-yl}propanoic acid] | < 1000 | 83 | 53 | 10.7 | 24.6 | 35 | 78.9 | 33.7
6 | O=C(O)CCc1c[nH]c2ccc(CC(=O)NC(c3ccccc3)c3ccc(Br)cc3N3CCCC3)cc12 (centres unmarked) [Cpd. 50, 3-{5-[({[4-bromo-2-(pyrrolidin-1-yl)phenyl](phenyl)methyl}carbamoyl)methyl]-1H-indol-3-yl}propanoic acid] | < 1000 | 92 | 38 | 0.9 | 15.8 | 32.3 | 26.5 | 36.8
7 | Cc1ccc(C(NC(=O)Cc2ccc3[nH]cc(CCC(=O)O)c3c2)c2ccccc2)c(N2CCCCC2)c1 (centres unmarked) [Cpd. 77, 3-{5-[({[4-methyl-2-(piperidin-1-yl)phenyl](phenyl)methyl}carbamoyl)methyl]-1H-indol-3-yl}propanoic acid] | < 1000 | 88 | 31 | -0.9 | 23.2 | 28.1 | 6.2 | 31.3
8 | COc1ccc(C(NC(=O)Cc2ccc3[nH]cc(CCC(=O)O)c3c2)c2ccccc2)c(N2CCCCC2)c1 (centres unmarked) [Cpd. 111, 3-{5-[({[4-methoxy-2-(piperidin-1-yl)phenyl](phenyl)methyl}carbamoyl)methyl]-1H-indol-3-yl}propanoic acid] | < 1000 | 88 | 37 | -12.4 | 28.2 | 29.4 | 7.5 | 40.1
9 | Cc1ccc(C(NC(=O)Cc2ccc3[nH]cc(CCC(=O)O)c3c2)c2ccccc2)c(N(C)C)c1 (centres unmarked) [Cpd. 192, 3-{5-[({[2-(dimethylamino)-4-methylphenyl](phenyl)methyl}carbamoyl)methyl]-1H-indol-3-yl}propanoic acid] | < 1000 | 79 | 66 | -1.9 | 28.6 | 31.2 | 4.3 | 30.9
10 | O=C(O)CCCc1c[nH]c2ccc(CC(=O)NC(c3ccccc3)c3ccccc3N3CCCCC3)cc12 (centres unmarked) [Cpd. 212, 4-{5-[({phenyl[2-(piperidin-1-yl)phenyl]methyl}carbamoyl)methyl]-1H-indol-3-yl}butanoic acid] | < 1000 | 26 | 11 | -5.4 | 29.5 | 32.2 | -6.3 | 31
